# Measurements taken from patent US8518953B2, “Aminopyrimidines useful as inhibitors of protein kinases” (Vertex Pharmaceuticals Incorporated, priority 2007, dated 2013).
# Legend:
# rats subjected to MCAO [1] = assay: Post Stroke Recovery MCAO Model: Forepaw Asymmetry (Cylinder Test); type: in vivo, rat; conditions: low dose, 14 days after stroke
# Source text: Adult male Wistar rats are pre-trained on a battery of behavioral tests including: tray reach, […], forelimb asymmetry (cylinder bracing), forelimb inhibition (swim test) (see below for detailed description of tests). Following pre-stroke behavioral assessment the rats receive surgery during which a stroke is induced. The rats are pseudo-randomly divided into 5 equal groups (n=12) ensuring an equal number of right and left strokes within each treatment group. The first group receives sham surgery with vehicle as treatment. Administration of the test compound and vehicle (dose, route, timing) is determined by the sponsor. The core body temperature is maintained at 37° C. (+/-1°). Following surgery all animals are behaviorally assessed 1, 7, and 14 d post-stroke. At the conclusion of behavioral assessment all rats undergo an MRI to determine infarct volume. […] Rectal temperature is monitored and maintained at 37 C+/-1° C. for the duration of the surgery and until the rat is awake and mobile (approximately 3 hr). […] Forepaw asymmetry of the animals is measured by placing a rat into a clear acrylic cylinder 25 cm in diameter. […] The first paw that touches the cylinder wall during the rear is counted. […]
# rats subjected to MCAO [2] = assay: Post Stroke Recovery MCAO Model: Tray Reaching; type: in vivo, rat; conditions: 7 and 14 days after stroke, compared with vehicle treatment
# Source text: Adult male Wistar rats are pre-trained on a battery of behavioral tests including: tray reach, gridwalk, forelimb asymmetry (cylinder bracing), forelimb inhibition (swim test) (see below for detailed description of tests). Following pre-stroke behavioral assessment the rats receive surgery during which a stroke is induced. The rats are pseudo-randomly divided into 5 equal groups (n=12) ensuring an equal number of right and left strokes within each treatment group. The first group receives sham surgery with vehicle as treatment. Administration of the test compound and vehicle (dose, route, timing) is determined by the sponsor. The core body temperature is maintained at 37° C. (+/−1°).
# Following surgery all animals are behaviorally assessed 1, 7, and 14 d post-stroke. At the conclusion of behavioral assessment all rats undergo an MRI to determine infarct volume. […]
# Each animal is weighed (average weights were 340 g) and then anesthetized with isoflurane (4% isoflurane carried on 2 l/min medical grade oxygen to induce surgical plane and then 2% with 2 l/min oxygen to maintain a surgical plane). […] Rectal temperature is monitored and maintained at 37 C+/−1° C. for the duration of the surgery and until the rat is awake and mobile (approximately 3 hr). […]
# Forepaw use is measured with a procedure that is adapted from the method devised by Whishaw, O'Connor, and Dunnett (1986). […]
smiles,measurement,setting,value
"Cc1nc(-c2ccccc2Cl)nc(Nc2n[nH]c3ncc(F)cc23)c1C [Compound I-1, N-(2-(2-chlorophenyl)-5,6-dimethylpyrimidin-4-yl)-5-fluoro-1H-pyrazolo[3,4-b]pyridin-3-amine]",deficit in forepaw asymmetry (cylinder test),rats subjected to MCAO [1],significantly ameliorated this deficit
same,deficit in reaching performance (tray reaching),rats subjected to MCAO [2],significantly ameliorated this deficit
